Broadly, the Tmax is the time from dosing to the highest level.

The source of these data is patent US9670209B2 (ACADIA Pharmaceuticals Inc., priority 2013, dated 2017).

SMILES strings stand for the structures. Marks after values point to notes of the source that are not given here.

For one data set, the system named is tear secretion. In words: Tear secretion (phenol red thread) in mice. The data set is classed as in vivo, balb/c mice. As to conditions: for Effects on tear secretion compared to Comparative Compound 2: other studies using the same method (Table 2), statistically significant compared to vehicle. How it is done: The tear distance, in mm, is recorded. The mice were not anesthetized or otherwise sedated. […] Data are analyzed by repeated measures ANOVA with post-hoc Bonferroni comparisons to vehicle. […] Further details can be seen in FIG. 2.

The target in data set [1] is human M1 muscarinic acetylcholine receptor (Homo sapiens (Human), UniProt P11229). In words: R-SAT (Receptor Selection and Amplification) assay, M1. The format is cell-based. As to conditions: for Emax: read-out: M1 EFF % AVG. How it is done: (§1) Briefly, NIH-3T3 cells were grown in 96-well tissue culture plates to 70% to 80% confluence. Cells were transfected with plasmid DNAs using Superfect Reagent (QIAGEN, Valencia, Calif.) as per the manufacturer's protocols. […] Cells were then grown in a humidified atmosphere with 5% ambient CO2 for 4 to 6 days. Media were then removed from the plates, and beta-galactosidase activity was measured by the addition of o-nitrophenyl-D-galactopyranoside (in phosphate-buffered saline with 5% NP-40 detergent). […] All data represent the mean of three wells and were analyzed using the computer program Excel Fit, and EC50 determinations were made using least-squares fit analysis with GraphPad Software Inc. (San Diego, Calif.) software.

For data set [2], the target named is human M2 muscarinic acetylcholine receptor (Homo sapiens (Human), UniProt P08172). The data set can be described thus: R-SAT (Receptor Selection and Amplification) assay, M2. The data set is classed as cell-based. As to conditions: for M2 PEC50 AVG: NIH-3T3 cells; for Emax: read-out: M2 EFF % AVG. The method, then: as §1
For data set [3], the target named is human M3 muscarinic acetylcholine receptor (Homo sapiens (Human), UniProt P20309). The data set can be described thus: R-SAT (Receptor Selection and Amplification) assay, M3. The data set is classed as cell-based. As to conditions: for Emax: read-out: M3 EFF % AVG; for M3 PEC50 AVG: NIH-3T3 cells. How it is done: as §1
The next data set addresses M1 muscarinic receptor (Homo sapiens (Human), UniProt P11229). In words: M1 GTPγS binding assay.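 On Emax: efficacy relative to carbachol as 100%.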 The data set is classed as biochemical. As to conditions: for Emax: read-out: M1 GTPγS EFF % AVG. Background: GTPγS resists hydrolysis and so accumulates on activated G proteins.
Data set [4] in a line: Ocular pharmacokinetic evaluation in rabbits. The format is in vivo, New Zealand White rabbits. How it is done:
The experimental animals were normotensive male New Zealand White rabbits. A single drop (35 μl) of a compound, (302s), at a concentration of 0.126% (corrected for oxalate salt weight) was administered to each eye by pipette. At 0.25, 0.5, 1, 2, 4, 8, and 24 hours, plasma, aqueous humor, vitreous humor, cornea, iris-ciliary body, retina, and choroid were collected (2 rabbits/timepoint, or 4 eyes/timepoint). Approximately 0.5 ml of blood was collected and placed in EDTA tubes. Blood samples were kept on ice during the duration of sample collection, and centrifuged to harvest plasma. Animals were euthanized and ocular tissues were collected and placed in vials and kept on dry ice for the duration of the collections. All ocular tissue and plasma samples were stored at or below −60° C. until bioanalysis. […] The plasma concentration at most timepoints was >100-fold lower than the compound concentration in target ocular tissues (iris/ciliary body, cornea, retina). The concentration of compound 302s in the target ocular tissues remained at active levels up to at least 24 h. Abbreviations used in FIG. 3 have the following meanings AH (Aqueous Humor), VH (Vitreous Humor) ICB (Iris Ciliary Body), CenP Retina (Center Punch Retina), Per Retina (Peripheral Retina) CenP Choroid (Center Punch Choroid), and Per Choroid (Peripheral Choroid)

[5] abbreviates: pilocarpine 24-hour study, 3 and 6 hours post-dosing.
[6] abbreviates: third study (pilocarpine 24-hour study), 3 hr post-dosing, 0.1% 5 μl drop, Pilocarpine 0.2% 20 μl drop.
Setting [7] is: third study (pilocarpine 24-hour study), 6 hr post-dosing, 0.1% 5 μl drop, Pilocarpine 0.2% 20 μl drop.
The mark [8] stands for this setting: third study (pilocarpine 24-hour study), 24 hr post-dosing, 0.1% 5 μl drop, Pilocarpine 0.2% 20 μl drop.
Setting [9] is: percent efficacy vs carbachol = 100 percent.
[10] abbreviates: second study of Table 2, 1 hr post-dosing, 5 μl drop of 0.1% to each eye.
Setting [11] is: second study of Table 2, 3 hr post-dosing, 5 μl drop of 0.1% to each eye.
Where [12] appears, read: first study of Table 2, 1 hr post-dosing, 5 μl drop of 0.1% to each eye.
[13] abbreviates: R-SAT, percent efficacy vs carbachol = 100 percent.

Sequence of human M2 muscarinic acetylcholine receptor (P08172 whole entry): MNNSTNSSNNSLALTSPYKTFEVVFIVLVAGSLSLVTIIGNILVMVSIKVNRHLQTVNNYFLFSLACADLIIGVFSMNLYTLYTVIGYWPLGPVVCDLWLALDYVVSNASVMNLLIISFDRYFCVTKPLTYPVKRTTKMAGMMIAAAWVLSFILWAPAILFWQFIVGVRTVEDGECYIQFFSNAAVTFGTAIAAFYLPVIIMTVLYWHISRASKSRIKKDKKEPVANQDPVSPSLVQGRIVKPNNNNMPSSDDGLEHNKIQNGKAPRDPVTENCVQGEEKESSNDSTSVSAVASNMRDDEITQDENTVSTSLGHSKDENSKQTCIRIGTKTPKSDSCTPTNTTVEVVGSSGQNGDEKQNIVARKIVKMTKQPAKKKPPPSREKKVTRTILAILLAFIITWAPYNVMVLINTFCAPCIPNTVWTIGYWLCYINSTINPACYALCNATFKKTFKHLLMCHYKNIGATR
Sequence of human M1 muscarinic acetylcholine receptor (P11229 whole entry): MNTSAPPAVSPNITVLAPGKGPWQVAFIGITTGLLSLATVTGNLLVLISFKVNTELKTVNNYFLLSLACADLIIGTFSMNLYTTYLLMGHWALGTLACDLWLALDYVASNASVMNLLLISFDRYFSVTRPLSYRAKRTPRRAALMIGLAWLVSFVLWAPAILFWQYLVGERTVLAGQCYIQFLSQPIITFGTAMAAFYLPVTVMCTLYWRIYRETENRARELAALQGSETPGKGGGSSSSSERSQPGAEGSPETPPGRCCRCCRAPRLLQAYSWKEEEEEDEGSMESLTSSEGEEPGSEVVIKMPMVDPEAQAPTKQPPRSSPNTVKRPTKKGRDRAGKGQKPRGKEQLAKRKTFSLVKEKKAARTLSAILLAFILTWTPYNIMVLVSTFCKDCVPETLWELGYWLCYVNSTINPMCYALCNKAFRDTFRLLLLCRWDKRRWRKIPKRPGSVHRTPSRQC
Sequence of M1 muscarinic receptor (P11229 whole entry): as above
Sequence of human M3 muscarinic acetylcholine receptor (P20309 whole entry): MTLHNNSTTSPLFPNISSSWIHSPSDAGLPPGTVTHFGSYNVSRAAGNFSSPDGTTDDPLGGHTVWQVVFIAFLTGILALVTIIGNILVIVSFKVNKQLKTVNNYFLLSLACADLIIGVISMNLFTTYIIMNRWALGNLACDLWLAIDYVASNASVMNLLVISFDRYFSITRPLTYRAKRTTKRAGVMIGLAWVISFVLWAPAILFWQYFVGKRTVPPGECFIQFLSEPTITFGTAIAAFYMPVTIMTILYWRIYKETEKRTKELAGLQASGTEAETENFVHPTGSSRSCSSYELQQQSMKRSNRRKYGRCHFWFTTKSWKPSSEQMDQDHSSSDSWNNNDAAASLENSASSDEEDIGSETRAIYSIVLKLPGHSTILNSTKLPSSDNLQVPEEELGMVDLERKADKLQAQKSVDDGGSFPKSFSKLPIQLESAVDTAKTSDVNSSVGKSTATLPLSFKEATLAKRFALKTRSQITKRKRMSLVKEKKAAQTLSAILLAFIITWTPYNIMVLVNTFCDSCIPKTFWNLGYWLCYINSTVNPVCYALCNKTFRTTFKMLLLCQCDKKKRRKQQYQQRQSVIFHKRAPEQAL

As for `CC[C@@H]1C(=O)OC[C@@H]1Cc1cncn1C` [Pilocarpine, reference compound], the “Tear secretion compared to vehicle” value in the data set on tear secretion (setting [5]) was “statistically significant improved tear secretion”. Moreover, the Tear secretion in the data set on tear secretion (setting [6]) worked out at 142% *; with tear secretion (setting [7]), 136% *; in the data set with tear secretion (setting [8]), 113%.
For the molecule `COCC[C@H]1C[C@H]2CC[C@@H](C1)N2C[C@@H](C)Cn1ncc2ccccc21` [Compound 303S, 1-((R)-3-((1R,3R,5S)-3-(2-Methoxyethyl)-8-azabicyclo[3.2.1]octan-8-yl)-2-methylpropyl)-1H-indazole], the “M1 PEC50 AVG” value in data set [1] (NIH-3T3 cells) is on record as 8.4. The Emax in data set [1] (setting [9]) was found to be 121%; in data set [2], 102%; in data set [3], 8%; on M1 muscarinic receptor, 67%. Further, the “M2 PEC50 AVG” value in data set [2] (R-SAT) is 7.1. At M1 muscarinic receptor, the EC50 was 63.1 nM. In addition, the “Effects on tear secretion compared to Comparative Compound 2” value with tear secretion is on record as “greater than that of Comparative Compound 2”. Besides, the Tear secretion with tear secretion (setting [10]) was found to be 131%; in the data set on tear secretion (setting [11]) it was 134% *.
In the case of `C[C@H](CN1[C@@H]2CC[C@H]1C[C@@H](OCC1CC1)C2)Cn1ncc2ccccc21` [Compound 302S, 1-((R)-3-((1R,3R,5S)-3-(cyclopropylmethoxy)-8-azabicyclo[3.2.1]octan-8-yl)-2-methylpropyl)-1H-indazole], in data set [1] (NIH-3T3 cells), the “M1 PEC50 AVG” value stood at 8.9. Moreover, the Emax in data set [1] (setting [9]) came out at 111%; in data set [2], 153%; in data set [3] it was 12%; at M1 muscarinic receptor, 98%. For the same molecule, in data set [2] (R-SAT), the “M2 PEC50 AVG” value worked out at 7.6. Besides, the “M3 PEC50 AVG” value in data set [3] (R-SAT) was 6.8. In addition, the “M1 GTPγS PEC50 AVG” value at M1 muscarinic receptor (GTPγS binding) was 8.5. For the same molecule, the Tear secretion in the data set with tear secretion (setting [12]) was determined as 156% *; in the data set on tear secretion (setting [10]), 157% *; in the data set with tear secretion (setting [11]) it was 155% *; in the data set with tear secretion (setting [6]) it was 152% *; with tear secretion (setting [7]), 151% *; with tear secretion (setting [8]) it was 120% †. The “Tear secretion compared to vehicle” value is reported as “statistically significant improved tear secretion” in the data set with tear secretion (setting [5]) and “trend toward significance” in the data set with tear secretion (pilocarpine 24-hour study, 24 hours post-dosing). Besides, the “Enhancement of tear secretion compared to pilocarpine” value with tear secretion (pilocarpine 24-hour study, all time points) was “exceeded the effect of pilocarpine at all time points”. Besides, the Kp in data set [4] (male, New Zealand White, rabbit, retina (against plasma), topical, 35 μl of 0.126% per eye, most timepoints, iris/ciliary body, cornea, retina, read-out: Plasma concentration lower than concentration in target ocular tissues) was > 100. The Tmax in data set [4] (male, New Zealand White, rabbit, topical, 35 μl of 0.126% per eye, all tissues, single 35 μl drop of 0.126% to each eye) came out at 15 min. Moreover, the Cmax in data set [4] (male, New Zealand White, rabbit, topical, 35 μl of 0.126% per eye, plasma, single 35 μl drop of 0.126% to each eye, read-out: Maximal plasma concentration (Cmax)) turned out to be 6.4 ng/g. For the same molecule, the “Time the concentration in the target ocular tissues remained at active levels” value in data set [4] (target ocular tissues, single topical drop) is reported as “at least 24 h”.
Consider `CC(C)(C)OC(=O)N1C2CC[C@H]1C[C@@H](O)C2` [Comparative compound 2, reference compound], for which the “M1 PEC50 AVG” value in data set [1] (NIH-3T3 cells) amounted to 9.0. Further, the “M1 EFF % AVG” value in data set [1] (setting [9]) worked out at 126%. Besides, the “M2 PEC50 AVG” value in data set [2] (R-SAT) is given as 7.1. Further, the “M2 EFF % AVG” value in data set [2] (setting [13]) was determined as 52%. Also, the “M3 PEC50 AVG” value in data set [3] (R-SAT) is reported as 7.1. Moreover, in data set [3] (setting [13]), the “M3 EFF % AVG” value is on record as 30%. In addition, the “M1 GTPγS PEC50 AVG” value on M1 muscarinic receptor (GTPγS binding) amounted to 7.9. On M1 muscarinic receptor (GTPγS binding, percent efficacy vs carbachol = 100 percent), the “M1 GTPγS EFF % AVG” value stood at 32%. Moreover, the Tear secretion is 149% * with tear secretion (setting [12]); 113% in the data set with tear secretion (setting [10]); 123% in the data set with tear secretion (setting [11]); 134% in the data set with tear secretion (setting [6]); 110% with tear secretion (setting [7]); 98% in the data set on tear secretion (setting [8]). The “Effect on tear secretion compared to vehicle” value in the data set on tear secretion (pilocarpine 24-hour study) is reported as “not significantly different from vehicle”.
Take `C=CCO[C@H]1C[C@H]2CC[C@@H](C1)N2C[C@@H](C)Cn1ncc2ccccc21` [Compound 305, 1-((R)-3-((1R,3R,5S)-3-(Allyloxy)-8-azabicyclo[3.2.1]octan-8-yl)-2-methylpropyl)-1H-indazole]: in data set [1] (NIH-3T3 cells), the “M1 PEC50 AVG” value was found to be 8.1. The Emax was determined as 115% in data set [1] (setting [9]), 107% in data set [2], 4% in data set [3] and 70% at M1 muscarinic receptor. Also, in data set [2] (R-SAT), the “M2 PEC50 AVG” value was 6.9. Also, the EC50 at M1 muscarinic receptor was 79.4 nM. In the data set on tear secretion (setting [12]), this molecule showed a Tear secretion of 163% *. The “Effects on tear secretion compared to Comparative Compound 2” value in the data set on tear secretion is “greater than that of Comparative Compound 2”.
In the case of `C[C@H](CN1[C@@H]2CC[C@H]1C[C@@H](OCC1CC1)C2)Cn1ncc2ccc(CO)cc21` [Compound 310s], the EC50 in data set [1] (NIH-3T3 cells, read-out: M1 PEC50 AVG (converted)) is 31.6 nM; at M1 muscarinic receptor, 631 nM. Further, the Emax in data set [1] (setting [9]) worked out at 96%; in data set [2] it was 27%; in data set [3], 6%; on M1 muscarinic receptor, 62%.
